Results taken from patent US9586942B2, “Aminotetraline and aminoindane derivatives, pharmaceutical compositions containing them, and their use in therapy” (AbbVie Deutschland GmbH & Co. KG, priority 2013, dated 2017).

What was measured:
[1] = Metabolic stability in human liver microsomes; format: in vitro ADME; conditions: human liver microsomes 0.25 mg protein/ml, 0.5 μM test substance, NADPH, 37° C., pH 7.4; scaled microsomal clearance; examples marked * tested as fumarate salts
Procedure: Metabolic stability was determined as follows:
0.5 μM test substance was preincubated together with human liver microsomes (0.25 mg of microsomal protein/ml) in 0.05 M potassium phosphate buffer of pH 7.4 in microtiter plates at 37° C. for 5 min. The reaction was started by adding NADPH (1.0 mM). After 0, 5, 10, 15, 20 and 30 min the reaction was stopped and cooled with twice the amount of quench solution consisting of acetonitrile/methanol 1:1, and containing 0.2 μM carbutamide. The samples were frozen until analyzed. The remaining concentration of undegraded test substance was determined by LC MSMS. The half-life (T1/2) was determined from the gradient of the signal of test substance/unit time plot, allowing to calculate the half-life of the test substance, assuming first order kinetics, from the decrease in the concentration of the compound with time. The microsomal clearance (mClint) was calculated as follows: mClint=((ln(2)/t 1/2)/Microsomal Protein Concentration (mg/ml))*1000, leading to the unit of uLmin/mg. The scaled clearance (mClin_scaled) was calculated as mCLint_scaled=m CLint*(Microsomal Yield (mg/kg BW))/1000000*60, leading to the units L/hr/kg. The Microsomal Yield is defined by the specifics of the used microsomes. Calculations were modified from references: Di, The Society for Biomolecular Screening, 2003, 453-462; Obach, DMD, 1999 vol 27. N 11, 1350-1359.

human GlyT1c transporter = human GlyT1c transporter (Homo sapiens (Human), UniProt P48067); assay: Radioligand binding assay using recombinant CHO cell membranes expressing human GlyT1; conditions: examples marked * tested as fumarate salts, read-out: radioligand binding Kiapp
Procedure: 2. Radioligand binding assays using recombinant CHO cell membranes expressing human GlyT1:
Radioligand binding to human GlyT1c transporter-expressing membranes was determined as described in Mezler et al., Molecular Pharmacology 74:1705-1715, 2008.

human GlyT1c transporter, sequence (P48067 whole entry): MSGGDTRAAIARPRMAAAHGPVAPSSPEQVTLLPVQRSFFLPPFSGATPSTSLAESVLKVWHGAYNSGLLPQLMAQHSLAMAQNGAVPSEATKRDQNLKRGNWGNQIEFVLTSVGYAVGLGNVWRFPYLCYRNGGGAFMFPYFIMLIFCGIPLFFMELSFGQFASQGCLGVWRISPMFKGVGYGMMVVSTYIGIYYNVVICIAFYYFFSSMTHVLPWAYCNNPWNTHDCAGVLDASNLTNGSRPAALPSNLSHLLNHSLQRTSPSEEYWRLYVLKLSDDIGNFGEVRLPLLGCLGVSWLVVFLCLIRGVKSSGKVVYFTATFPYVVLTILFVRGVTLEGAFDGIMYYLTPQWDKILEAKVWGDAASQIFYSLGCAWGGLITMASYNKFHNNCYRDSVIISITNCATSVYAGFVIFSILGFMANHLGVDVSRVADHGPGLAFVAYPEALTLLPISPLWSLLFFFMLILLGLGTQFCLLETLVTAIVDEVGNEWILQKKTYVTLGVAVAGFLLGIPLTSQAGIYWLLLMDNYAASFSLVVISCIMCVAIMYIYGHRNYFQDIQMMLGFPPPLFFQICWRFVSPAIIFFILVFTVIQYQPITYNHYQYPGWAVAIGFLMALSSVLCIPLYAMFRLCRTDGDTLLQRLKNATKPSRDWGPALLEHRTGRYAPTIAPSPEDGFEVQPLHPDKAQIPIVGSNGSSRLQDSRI

Question: With `Cn1cnc(S(=O)(=O)NC2CN(c3ccc4c(c3)[C@@H](Cc3ccccc3)[C@@H](N3CCC3)CC4)C2)c1` [Example 1, N-(1-((7S,8R)-7-(azetidin-1-yl)-8-benzyl-5,6,7,8-tetrahydronaphthalen-2-yl)azetidin-3-yl)-1-methyl-1H-imidazole-4-sulfonamide] as the molecule, how does the “human mCl” value [1] read?
Answer: The value was “≦5 L/h/Kg”.

Question: And the Ki (human GlyT1c transporter)?
Answer: The Ki was no more than 10 nM.

Question: With `CS(=O)(=O)NC1CN(c2ccc3c(c2)[C@@H](Cc2ccccc2)[C@@H](N2CCC2)CC3)C1` [Example 3, N-(1-((7S,8R)-7-(azetidin-1-yl)-8-benzyl-5,6,7,8-tetrahydronaphthalen-2-yl)azetidin-3-yl)methanesulfonamide] as the molecule, how does the “human mCl” value [1] read?
Answer: Its value is “≦5 L/h/Kg”.

Question: What about the Ki (human GlyT1c transporter) of the same molecule?
Answer: Its Ki is no more than 1000 nM.

Question: With `CCS(=O)(=O)NC1CN(c2ccc3c(c2)[C@@H](Cc2ccccc2)[C@@H](N2CCC2)CC3)C1` [Example 4, N-(1-((7S,8R)-7-(azetidin-1-yl)-8-benzyl-5,6,7,8-tetrahydronaphthalen-2-yl)azetidin-3-yl)ethanesulfonamide] as the molecule, how does the “human mCl” value [1] read?
Answer: Its value is “≦5 L/h/Kg”.

Question: What about the Ki (human GlyT1c transporter) of the same molecule?
Answer: The Ki was no more than 100 nM.

Question: For `CCCS(=O)(=O)NC1CN(c2ccc3c(c2)[C@@H](Cc2ccccc2)[C@@H](N2CCC2)CC3)C1` [Example 5, N-(1-((7S,8R)-7-(azetidin-1-yl)-8-benzyl-5,6,7,8-tetrahydronaphthalen-2-yl)azetidin-3-yl)propane-1-sulfonamide], which “human mCl” value [1] is on record?
Answer: Its value is “≦5 L/h/Kg”.

Question: What about the Ki (human GlyT1c transporter) of the same molecule?
Answer: The Ki was no more than 10 nM.

Question: Which results are given for `O=S(=O)(NC1CN(c2ccc3c(c2)[C@@H](Cc2ccccc2)[C@@H](N2CCC2)CC3)C1)c1ccc2c(c1)OC(F)(F)O2` [Example 6, N-(1-((7S,8R)-7-(azetidin-1-yl)-8-benzyl-5,6,7,8-tetrahydronaphthalen-2-yl)azetidin-3-yl)-2,2-difluorobenzo[d][1,3]dioxole-5-sulfonamide]?
Answer: human mCl [1]: ≦500 L/h/Kg; Ki (human GlyT1c transporter): ≤ 10000 nM

Question: What does the source list for `Cn1cnc(S(=O)(=O)NC2(C)CN(c3ccc4c(c3)[C@@H](Cc3ccccc3)[C@@H](N3CCC3)CC4)C2)c1` [Example 7, N-(1-((7S,8R)-7-(azetidin-1-yl)-8-benzyl-5,6,7,8-tetrahydronaphthalen-2-yl)-3-methylazetidin-3-yl)-1-methyl-1H-imidazole-4-sulfonamide]?
Answer: human mCl [1]: ≦5 L/h/Kg; Ki (human GlyT1c transporter): ≤ 100 nM

Question: With `CCS(=O)(=O)NC1(C)CN(c2ccc3c(c2)[C@@H](Cc2ccccc2)[C@@H](N2CCC2)CC3)C1` [Example 8, N-(1-((7S,8R)-7-(azetidin-1-yl)-8-benzyl-5,6,7,8-tetrahydronaphthalen-2-yl)-3-methylazetidin-3-yl)ethanesulfonamide] as the molecule, how does the “human mCl” value [1] read?
Answer: Its value is “≦5 L/h/Kg”.

Question: What about the Ki (human GlyT1c transporter) of the same molecule?
Answer: Its Ki is no more than 10000 nM.

Question: For `Cn1cnc(S(=O)(=O)N[C@@H]2CCN(c3ccc4c(c3)[C@@H](Cc3ccccc3)[C@@H](N3CCC3)CC4)C2)c1` [Example 9, N-((R)-1-((7S,8R)-7-(azetidin-1-yl)-8-benzyl-5,6,7,8-tetrahydronaphthalen-2-yl)pyrrolidin-3-yl)-1-methyl-1H-imidazole-4-sulfonamide], which “human mCl” value [1] is on record?
Answer: Its value is “≦5 L/h/Kg”.

Question: What about the Ki (human GlyT1c transporter) of the same molecule?
Answer: Its Ki is no more than 100 nM.

Question: Which “human mCl” value [1] does the source give for `Cn1cnc(S(=O)(=O)N[C@H]2CCN(c3ccc4c(c3)[C@@H](Cc3ccccc3)[C@@H](N3CCC3)CC4)C2)c1` [Example 10, N-((S)-1-((7S,8R)-7-(azetidin-1-yl)-8-benzyl-5,6,7,8-tetrahydronaphthalen-2-yl)pyrrolidin-3-yl)-1-methyl-1H-imidazole-4-sulfonamide] here?
Answer: The value was “≦5 L/h/Kg”.

Question: And the Ki (human GlyT1c transporter)?
Answer: Its Ki is no more than 1000 nM.

Question: With `Cn1cnc(S(=O)(=O)NC2CCN(c3ccc4c(c3)[C@@H](Cc3ccccc3)[C@@H](N3CCC3)CC4)CC2)c1` [Example 11, N-(1-((7S,8R)-7-(azetidin-1-yl)-8-benzyl-5,6,7,8-tetrahydronaphthalen-2-yl)piperidin-4-yl)-1-methyl-1H-imidazole-4-sulfonamide] as the molecule, how does the “human mCl” value [1] read?
Answer: Its value is “≦5 L/h/Kg”.

Question: And the Ki (human GlyT1c transporter)?
Answer: Its Ki is no more than 100 nM.

Question: Which “human mCl” value [1] does the source give for `Cn1cnc(S(=O)(=O)N[C@H]2C[C@H](c3ccc4c(c3)[C@@H](Cc3ccccc3)[C@@H](N3CCC3)CC4)C2)c1` [Example 12, N-((1R,3r)-3-((7S,8R)-7-(azetidin-1-yl)-8-benzyl-5,6,7,8-tetrahydronaphthalen-2-yl)cyclobutyl)-1-methyl-1H-imidazole-4-sulfonamide] here?
Answer: Its value is “≦5 L/h/Kg”.

Question: And the Ki (human GlyT1c transporter)?
Answer: Its Ki is no more than 10 nM.

Question: What does the source list for `Cn1cnc(S(=O)(=O)N[C@H]2C[C@@H](c3ccc4c(c3)[C@@H](Cc3ccccc3)[C@@H](N3CCC3)CC4)C2)c1` [Example 13, N-((1 S,3s)-3-((7S,8R)-7-(azetidin-1-yl)-8-benzyl-5,6,7,8-tetrahydronaphthalen-2-yl)cyclobutyl)-1-methyl-1H-imidazole-4-sulfonamide]?
Answer: human mCl [1]: ≦5 L/h/Kg; Ki (human GlyT1c transporter): ≤ 100 nM

Question: For `CCCS(=O)(=O)N[C@H]1CCN(c2ccc3c(c2)[C@@H](Cc2ccccc2)[C@@H](N2CCC2)CC3)C1=O` [Example 14, N-((S)-1-((7S,8R)-7-(azetidin-1-yl)-8-benzyl-5,6,7,8-tetrahydronaphthalen-2-yl)-2-oxopyrrolidin-3-yl)propane-1-sulfonamide], which “human mCl” value [1] is on record?
Answer: Its value is “≦5 L/h/Kg”.

Question: And the Ki (human GlyT1c transporter)?
Answer: The Ki was no more than 100 nM.

Question: What does the source list for `Cn1cnc(S(=O)(=O)NC2CN(c3ccc4c(c3)[C@@H](Cc3ccccc3)[C@@H](N3CC5CC5C3)CC4)C2)c1` (stereo partly drawn) [Example 15, N-(1-((7S,8R)-8-benzyl-7-(3-azabicyclo[3.1.0]hexan-3-yl)-5,6,7,8-tetrahydronaphthalen-2-yl)azetidin-3-yl)-1-methyl-1H-imidazole-4-sulfonamide]?
Answer: human mCl [1]: ≦5 L/h/Kg; Ki (human GlyT1c transporter): ≤ 100 nM

Question: For `Cn1cc(S(=O)(=O)NC2CN(c3ccc4c(c3)[C@@H](Cc3ccccc3)[C@@H](N3CC5CC5C3)CC4)C2)nn1` (stereo partly drawn) [Example 16, N-(1-((7S,8R)-8-benzyl-7-(3-azabicyclo[3.1.0]hexan-3-yl)-5,6,7,8-tetrahydronaphthalen-2-yl)azetidin-3-yl)-1-methyl-1H-1,2,3-triazole-4-sulfonamide], which “human mCl” value [1] is on record?
Answer: Its value is “≦5 L/h/Kg”.

Question: What about the Ki (human GlyT1c transporter) of the same molecule?
Answer: Its Ki is no more than 10 nM.

Question: Which “human mCl” value [1] does the source give for `CCCS(=O)(=O)NC1CN(c2ccc3c(c2)[C@@H](Cc2ccccc2)[C@@H](N2CC4CC4C2)CC3)C1` (stereo partly drawn) [Example 17, N-(1-((7S,8R)-8-benzyl-7-(3-azabicyclo[3.1.0]hexan-3-yl)-5,6,7,8-tetrahydronaphthalen-2-yl)azetidin-3-yl)propane-1-sulfonamide] here?
Answer: Its value is “≦5 L/h/Kg”.

Question: And the Ki (human GlyT1c transporter)?
Answer: Its Ki is no more than 10 nM.
